Experimental findings from patent US5508293A, “Pyridinecarboxyimidamide compounds and the use thereof” (Kirin Beer Kabushiki Kaisha, priority 1992, dated 1996) are described below.

The subject of assay [1] is spontaneously hypertensive rats (SHR), mean blood pressure. Put plainly: Antihypertensive activities on spontaneously hypertensive rat (intravenously). The class given is in vivo, rat (male spontaneously hypertensive rats. The note with it: iv, anesthetized male SHR, i.v., cumulative dosing, read-out: ED20 (the dose which lowered the blood pressure by 20%). Here is the method:
Animals were anesthetized with urethane: α-chloralose.
A cannula was inserted into the carotid artery for measuring the mean blood pressure via a pressure transducer. A test compound was cumulatively administered through the cannula inserted into the femoral vein with an interval of 30 minutes. Variation of blood pressure was determined as the percentage change in the blood pressure before administration of the test compound, and the ED20 (the dose which lowered the blood pressure by 20%) was calculated from a dose-response curve.

The subject of assay [2] is spontaneously hypertensive rats (SHR), systolic blood pressure. As to the kind of experiment: Time course of antihypertensive activity in conscious SHR (oral), Compound No. 16. The note with it: 3.0 mg/kg oral. The class given is in vivo, rat (male spontaneously hypertensive rats. The protocol: Time course of antihypertensive activity of 5-amino-N-cyano-N'-(2-phenethyl)pyridinecarboximidamide (Compound No. 16) was examined.
(§1) Systolic blood pressure (SBP) was measured with the tail cuff method.
The compound No. 16 was dissolved in an equivalent mixture of polyethylene glycol 200 and physiological saline, and administered orally with the aid of an oral probe. SBP was measured before administration and 1, 2, 4, 6, 8, 12 and 24 hours after administration of the compound. The results were expressed as the percentage change in SBP obtained before administration.

Assay [3] has the same test system. Put plainly: Antihypertensive effects on conscious SHR (oral), Compound Nos. 18 and 19. Conditions: 3.0 mg/kg oral. The class given is in vivo, rat (male spontaneously hypertensive rats. The protocol:
Antihypertensive effects of- 5-amino-N-cyano-N'-(2-nitroxyethyl)-3-pyridinecarboximidamide (N-cyano-N'-(2-nitroxyethyl)-5-(3-aminopyridine)carboximidamide; Compound No. 18) and N-cyano-5-ethylamino-N'-(2-nitroxyethyl)-3-pyridinecarboximidamide (N-cyano-N'-(2-nitroxyethyl)-5-[3-(N-ethylaminopyridine)]carboximidamide; Compound No. 19) were assessed by comparison with those of the methanesulfonate salt of N-cyano-N'-(2-nitroxyethyl)-3-pyridinecarboximidamide (compound described in Japanese Patent Laid-Open Publication No. 163061/1991) as a reference compound which is thought to be a well-known compound most similar to the compound of the present invention.
as §1
Each of the compound Nos. 18 and 19 was dissolved in an equivalent mixture of polyethylene glycol 200 and physiological saline, and the reference compound was dissolved in physiological saline. The compounds were administered orally with the aid of an oral probe. SBP was measured before administration and 1, 2, 4, 6, 8, 12 and 24 hours after administration of the compound. The results were expressed as the percentage change in SBP observed before administration.

In a further assay the test system is rat aorta. As to the kind of experiment: Vasodilating effect in a rat aorta (relaxation of KCl-induced contraction). On the set-up: species or system rat (male Wistar rat). The note with it: isolated rat thoracic aorta, 40 mM KCl; read-out: IC50 (concentration for inhibiting 50% of the tension induced by KCl). The protocol:
Physiological effect of the compound of the present invention was tested by the method with use of an isolated rat aorta.
Thoracic aorta was isolated from a male Wistar rat (body weight, 250-350 g) exsanguinated to death for obtaining ring preparations having a width of 3 mm. The preparations were suspended into an organ bath filled with the Krebs-Ringer solution through which a mixed gas of 95% O2 and 5% CO2 had been aerated at 37° C. A resting tension of 1 g was applied to the preparation. After the tension in the preparation was stabilized, the solution in the organ bath was exchanged with an equimolar solution containing 40 mM KC1 to increase the tension of the preparation. When the tension induced by KCl become stable, the test compound was cumulatively added to the organ bath to relax the preparation. Relaxation response was expressed as percentage inhibition of KCl-induced contraction, and the IC50 value (concentration for inhibiting 50% of the tension induced by KCl) was calculated from the average concentration-response curve by the Probit method.

A further assay has as its system beagles, blood pressure. As to the kind of experiment: Antihypertensive activity on anesthetized beagles (intravenously). The class given is in vivo, dog (beagles). Conditions: for Antihypertensive activity (%): i.v. Here is the method:
Antihypertensive activities of 5-amino-N-cyano-N'-[2-(2-chlorophenyl)ethyl]-3-pyridinecarboximidamide (N-cyano-N'-[2-(2-chlorophenyl)ethyl]-5-(3aminopyridine)carboximidamide; Compound No. 6) according to the present invention was assessed by comparison with those of N-cyano-N'-[2-(2-chlorophenyl)ethyl]-3-pyridinecarboximidamide which is thought to be a wellknown compound most similar to the compound of the present invention (see Japanese Patent Laid-Open Publication No. 163061/1991).
Experiments were carried out with beagles (body weight, 9.2-10.4 kg) under anesthetization by intravenous administering 30 mg/kg of pentobarbital sodium. A cannula was inserted into the right femoral artery for measuring blood pressure. […]

Assay [4] has as its system coronary blood flow (circumflex branch of the left coronary artery), beagles. As to the kind of experiment: Coronary dilating effect on beagles (coronary blood flow, anesthetized dog). The class given is in vivo. Conditions: i.v., 10 Mg/Kg. The protocol: Coronary dilating effects of 5-amino-N-cyano-N'-(2-nitroxyethyl)-3-pyridinecarboximidamide (Compound No. 18) of the present invention was assessed by comparison with those of N-cyano-N'-(2-nitroxyethyl)-3-pyridinecarboximidamide methanesulfonic acid (compound described in Japanese Patent Laid-Open Publication No. 163061/1991) which is thought to be a well-known compound most similar to the compound of the present invention.
A dog (body weight, 8.3 kg) was anesthetized with 30 mg/kg of pentobarbital sodium intravenously. Respiration was maintained with room air through a cuffed endotracheal tube. The drug was administered through the femoral vein, and the coronary blood flow was measured by a probe attached to the circumflex branch of the left coronary artery.

In the case of `Cc1cncc(C(=NCCc2ccccc2Cl)NC#N)c1` [Compound No. 1, N-cyano-N'-[2-(2-chlorophenyl)ethyl]-5-methyl-3-pyridinecarboximidamide], in assay [1], the ED20 came to 0.0171 mg/kg.
For `N#CN=C(NCCc1ccccc1)c1cncc(N)c1` [Compound No. 16, 5-amino-N-cyano-N'-(2-phenethyl)-3-pyridine-carboximidamide], the ED20 in assay [1] was determined as 0.028 mg/kg. Besides, in assay [2], the “decrease in blood pressure” value is “decrease in blood pressure was observed”. Further, in assay [2], the “duration of the antihypertensive effect” value is no less than 12 h. The “percentage change in SBP obtained before administration” value in assay [2] (1 hour after administration) is reported as -45.3%; in assay [2] (2 hour after administration) it was -23.9%; in assay [2] (4 hour after administration), -42.3%; in assay [2] (6 hour after administration), -27.9%; in assay [2] (8 hour after administration) it was -22.8%; in assay [2] (12 hour after administration), -15.1%. Moreover, the “percentage change in SBP obtained before administration” value in assay [2] (24 hour after administration) is -8.2%.
For the compound `CCNc1cncc(C(=NCCO[N+](=O)[O-])NC#N)c1` [Compound No. 19, N-cyano-5-ethylamino-N'-(2-nitroxyethyl)-3-pyridinecarboximidamide], the “decrease in blood pressure / antihypertensive effect” value in assay [3] is reported as “decrease in blood pressure was observed”. Besides, in assay [3], the “duration of the antihypertensive effect” value is no less than 12 h. The “percent change in SBP observed before administration of the compound” value (“percent change … of the compound” below) is on record as -60.2% in assay [3] (1 hour after administration); -47.2% in assay [3] (2 hour after administration); -24.3% in assay [3] (4 hour after administration); -23.9% in assay [3] (6 hour after administration); -25.9% in assay [3] (8 hour after administration); -27.7% in assay [3] (12 hour after administration). For the same compound, the “percent change … of the compound” value in assay [3] (24 hour after administration) was -9.8%. The IC50 in the assay with rat aorta was 10 µM.
`N#CNC(=NCCc1ccccc1Cl)c1cccnc1` [N-cyano-N'-[2-(2-chlorophenyl)ethyl]-3-pyridinecarboximidamide, reference compound]: the “decrease in blood pressure” value with beagles, blood pressure (10 and 30 μg/kg) is “decrease in blood pressure was observed”. Besides, in the assay on beagles, blood pressure (both doses, 10 and 30 μg/kg), the “recovery of the decrease in blood pressure after administration” value is no more than 10 min. The “Antihypertensive activity (%)” value is 0.0% in the assay with beagles, blood pressure (dose 3 μg/kg, 0 min after dosage); 0.0% in the assay on beagles, blood pressure (dose 3 μg/kg, 1 min after dosage); 1.9% in the assay with beagles, blood pressure (dose 3 μg/kg, 2 min after dosage); 1.9% with beagles, blood pressure (dose 3 μg/kg, 3 min after dosage); 0.0% in the assay on beagles, blood pressure (dose 10 μg/kg, 0 min after dosage); -23.4% in the assay with beagles, blood pressure (dose 10 μg/kg, 1 min after dosage). For the same compound, the “Antihypertensive activity (%)” value with beagles, blood pressure (dose 10 μg/kg, 2 min after dosage) was -17.7%; with beagles, blood pressure (dose 10 μg/kg, 3 min after dosage) it was -13.1%; with beagles, blood pressure (dose 10 μg/kg, 5 min after dosage), -4.7%; in the assay on beagles, blood pressure (dose 30 μg/kg, 0 min after dosage), 0.0%; in the assay with beagles, blood pressure (dose 30 μg/kg, 1 min after dosage), -41.7%; in the assay with beagles, blood pressure (dose 30 μg/kg, 2 min after dosage), -39.8%. Also, the “Antihypertensive activity (%)” value is recorded as -33.3% in the assay on beagles, blood pressure (dose 30 μg/kg, 3 min after dosage); -16.7% in the assay with beagles, blood pressure (dose 30 μg/kg, 5 min after dosage); -2.8% with beagles, blood pressure (dose 30 μg/kg, 7.5 min after dosage); -0.9% in the assay on beagles, blood pressure (dose 30 μg/kg, 10 min after dosage).
For the compound `N#CNC(=NCCO[N+](=O)[O-])c1cccnc1` [Reference Compound, N-cyano-N'-(2-nitroxyethyl)-3-pyridinecarboximidamide, reference compound], in assay [3], the “decrease in blood pressure / antihypertensive effect” value was “antihypertensive effect was also observed”. In assay [3], the “duration of the antihypertensive effect” value is “about 6 hours”. In addition, the “percent change … of the compound” value was -55.9% in assay [3] (1 hour after administration), -41.5% in assay [3] (2 hour after administration), -10.6% in assay [3] (4 hour after administration) and -6.8% in assay [3] (6 hour after administration). Further, the “increase of coronary blood flow” value in assay [4] is reported as “increase in coronary blood flow was observed”. In assay [4], the “time for which the increase of coronary blood flow was retained” value is no more than 10 min. The “percent change of coronary blood flow as compared with the blood flow before administration” value was 219.0% in assay [4] (1 min after dosage), 42.9% in assay [4] (3 min after dosage), 14.3% in assay [4] (5 min after dosage) and 0.0% in assay [4] (10 min after dosage).
For the compound `CCc1cncc(C(=NCCc2ccccc2Cl)NC#N)c1` [compound 2, N-cyano-N'-[2-(2-chlorophenyl)ethyl]-5-ethyl-3-pyridinecarboximidamide], in assay [1], the ED20 turned out to be 0.007 mg/kg.
On to `N#CNC(=NCCc1ccccc1Cl)c1cncc(CO)c1` [compound 3, N-cyano-N'-[2-(2-chlorophenyl)ethyl]-5-hydroxymethyl-3-pyridinecarboximidamide], for which the ED20 in assay [1] amounted to 0.0087 mg/kg.
For the compound `N#CNC(=NCCc1ccccc1Cl)c1ccc(N)nc1` [compound 5, 6-amino-N-cyano-N'-[2-(2-chlorophenyl)ethyl]-3-pyridinecarboximidamide], the ED20 in assay [1] is 0.0333 mg/kg.
`CC(=O)Nc1cncc(C(=NC#N)NCCc2ccccc2Cl)c1` [compound 7, 5-acetamide-N-cyano-N'-[2-(2-chlorophenyl)-ethyl]-3-pyridinecarboximidamide]: the ED20 in assay [1] amounted to 0.0123 mg/kg.
The same measure, in the same setting: as for `CCNc1cncc(C(=NCCc2ccccc2Cl)NC#N)c1` [compound 10, N-cyano-N'-[2-(2-chlorophenyl)ethyl]-5-ethylamino-3-pyridinecarboximidamide], the figure is 0.0079 mg/kg.
As for `N#CNC(=NCCO[N+](=O)[O-])c1ccc(N)nc1` [compound 20, 6-amino-N-cyano-N'-(2-nitroxyethyl)-3-pyridinecarboximidamide], in the assay on rat aorta, the IC50 is 2.7 µM.
Take `CCN(CC)c1ccc(C(=NCCO[N+](=O)[O-])NC#N)cn1` [compound 21, N-cyano-6-diethylamino-N'-(2-nitroxyethyl)-3-pyridinecarboximidamide]: the IC50 with rat aorta was determined as 4.6 µM.
